Laboratory results: the CheMixHub viscosity set

Experiment: xn = mol fraction of the nth substance listed

COc1ccccc1N + CCC(C)O
viscosity [mPa·s], 101 kPa
Settings | x1 = 0.1106 | x1 = 0.1844 | x1 = 0.2647 | x1 = 0.3523 | x1 = 0.4825 | x1 = 0.5919 | x1 = 0.6713 | x1 = 0.7566 | x1 = 0.8969
303.15 K | 2.843 | 3.007 | 3.188 | 3.385 | 3.681 | 3.931 | 4.114 | 4.314 | 4.656
308.15 K | 2.398 | 2.561 | 2.739 | 2.935 | 3.229 | 3.483 | 3.671 | 3.878 | 4.233
313.15 K | 2.083 | 2.242 | 2.413 | 2.602 | 2.891 | 3.143 | 3.331 | 3.541 | 3.906
318.15 K | 1.788 | 1.942 | 2.107 | 2.29 | 2.572 | 2.825 | 3.017 | 3.231 | 3.6

COc1ccccc1N + CCCC(=O)O
viscosity [mPa·s], 100 kPa
Settings | x1 = 0.1187 | x1 = 0.1967 | x1 = 0.2806 | x1 = 0.3708 | x1 = 0.5026 | x1 = 0.6111 | x1 = 0.6888 | x1 = 0.7711 | x1 = 0.9041
303.15 K | 1.813 | 2.094 | 2.394 | 2.716 | 3.184 | 3.567 | 3.839 | 4.126 | 4.589
308.15 K | 1.646 | 1.911 | 2.194 | 2.497 | 2.937 | 3.298 | 3.554 | 3.824 | 4.259
313.15 K | 1.478 | 1.726 | 1.992 | 2.276 | 2.689 | 3.027 | 3.266 | 3.519 | 3.926
318.15 K | 1.313 | 1.547 | 1.796 | 2.063 | 2.451 | 2.768 | 2.992 | 3.229 | 3.611

COc1ccccc1N + CCCC(C)=O
viscosity [mPa·s], 100 kPa
Settings | x1 = 0.0932 | x1 = 0.1824 | x1 = 0.2643 | x1 = 0.3512 | x1 = 0.4494 | x1 = 0.5391 | x1 = 0.654 | x1 = 0.7787 | x1 = 0.8784
303.15 K | 0.887 | 1.312 | 1.695 | 2.099 | 2.548 | 2.952 | 3.46 | 3.999 | 4.421
308.15 K | 0.858 | 1.257 | 1.616 | 1.99 | 2.406 | 2.776 | 3.245 | 3.741 | 4.128
313.15 K | 0.829 | 1.202 | 1.537 | 1.879 | 2.262 | 2.598 | 3.028 | 3.481 | 3.832
